Assay results reported in US11226337B2, “Chemoproteomic profiling of protein electrophilic and oxidative post-translational modifications” (Zenagem, LLC, priority 2017, dated 2022).

Columns and labels:
FTO = molecular target: T1, FTO (Homo sapiens, UniProt Q9C0B1); assay: gel-based RP-ABPP of transfected HEK293T cells; assay type: cell-based; conditions: transfected HEK293T cells vs mock
T1 construct: Full-length genes encoding three probe 1- and one probe 2-targeted proteins were amplified from a cDNA library; expressed in transfected cells; host or cells: HEK293T
T1 sequence (Q9C0B1 whole entry): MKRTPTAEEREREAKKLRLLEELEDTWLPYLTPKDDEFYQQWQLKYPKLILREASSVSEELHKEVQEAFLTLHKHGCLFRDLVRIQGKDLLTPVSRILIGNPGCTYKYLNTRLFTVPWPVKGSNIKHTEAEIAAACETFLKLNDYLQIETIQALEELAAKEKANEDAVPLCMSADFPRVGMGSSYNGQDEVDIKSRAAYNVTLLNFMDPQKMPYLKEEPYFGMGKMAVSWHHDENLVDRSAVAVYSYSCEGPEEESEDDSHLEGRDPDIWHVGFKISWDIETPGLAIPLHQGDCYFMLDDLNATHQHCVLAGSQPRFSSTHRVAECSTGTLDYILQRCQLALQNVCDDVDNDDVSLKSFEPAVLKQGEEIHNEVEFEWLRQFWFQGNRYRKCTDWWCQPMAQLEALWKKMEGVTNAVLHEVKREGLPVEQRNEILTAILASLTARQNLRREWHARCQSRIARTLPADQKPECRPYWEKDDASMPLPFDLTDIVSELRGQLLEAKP
Protocol: (§1) Soluble proteomes from treated cells were diluted to 1 mg/mL. To each sample (50 μL), a freshly prepared “click” or CuAAC reagent mixture (6 μL) containing 0.1 mM tris(benzyltriazolylmethyl)amine (TBTA) (3 μL/sample, 1.7 mM in 4:1 DMSO:t-BuOH), 1 mM CuSO4 (1 μL/sample, 50 mM in H2O), 25 μM azide-rhodamine (1 μL/sample, 1.25 mM in DMSO), and freshly prepared 1 mM tris(2-carboxyethyl)phosphine (TCEP) (1 μL/sample, 50 mM in PBS or H2O) was added to conjugate the fluorophore to probe-labelled proteins. TBTA was purchased from TCI and azide-rhodamine was synthesized as previously described^64. Upon addition of the click mixture, each reaction was immediately mixed by vortexing and then allowed to react at ambient temperature for 1 hour before quenching the reactions with SDS loading buffer (4× stock, 17 μL). Proteins (˜25 μg total protein loaded per gel lane) were resolved by SDS-PAGE (10% acrylamide) and visualized by in-gel fluorescence scanning on a Hitachi FMBIO-II or BioRad ChemiDoc MP flatbed fluorescence scanner.
(§2) Full-length genes encoding three probe 1- and one probe 2-targeted proteins were amplified from a cDNA library derived from the same low-passage HEK293T cells used for proteomic profiling. The library was generated using Ribozol RNA extraction (Amresco) and iScript reverse transcription (Bio-rad) supermix reagents. The gene products were cloned into mammalian expression vectors containing N- or C-terminal FLAG affinity tags. The gene for S-adenosyl-L-methionine decarboxylase (AMD1 or AdoMetDC) was cloned into pFLAG-CMV-sport6 (N-terminal tag) at NotI and SalI restriction sites. AMD1, Secernin-3 (SCRN3) and fat mass- and obesity-associated Fe(II)- and 20G-dependent dioxygenase (FTO) were cloned into pRK5 (C-terminal tag) at SalI and NotI restriction sites. Kelch-like ECH-associated protein-1 (Keapl) (N-terminal tag), and empty plasmids of pRK5 were gifts. Full sequences of the genes were confirmed. The proteins expressed via transient transfection in HEK293T cells contain an additional 15 amino acids appended to their N-terminal methionine residue or C-terminus (MDYKD4KLKACGR (SEQ ID NO: 43) and A3G4DYKD4K (SEQ ID NO: 44), respectively). The DYKD4K (SEQ ID NO: 42) appendage in each contains the classic FLAG epitope that permits detection by western blotting or purification by affinity chromatography. Mutants of SCRN3 were generated using QuikChange site-directed mutagenesis with primers containing the desired mutations and their respective compliments. The gene for the deletion mutant of SCRN3 with the sequence MetlCys6-SCRN3 instead of Met1 Glu2Pro3Phe4Ser5Cys6-SCRN3 (SEQ ID NO: 45) was amplified from the wild-type C-terminal FLAG-tagged construct and cloned into the same vector.
(§3) HEK293T cells were grown to ˜40% confluence under standard growth conditions passaged in the appropriate media before adding the appropriate expression vector (control cells (‘mock’) received an equal amount of the appropriate empty vector) and polyethyleneimine (PEI) ‘MAX’ (MW 40,000, Polysciences Inc.) as a transfection reagent under standard transfection conditions (3:1 vector/PEI (w/w) ratio). Cells were incubated for ˜48 h before labelling in situ. Proteomes were processed for gel- and MS-based experiments as described above and in Example 2.
(§4) After scanning fluorescence, that same gel was transferred to nitrocellulose membrane in Towbin buffer, the membrane was blocked for ˜1 hour at ambient temperature with 5% nonfat dry milk (w/v) in Tris-buffered saline with Tween 20 (TBST) and incubated with primary antibodies in the same solution overnight at 4° C. The antibodies included anti-FLAG (1:2500, F1804, Sigma), anti-AdoMetDC (1:500, sc-160951, Santa Cruz Biotechnology) and anti-His6 (1:1000, ab18184, Abcam). The blots were washed (3×5 min, TBST), incubated with secondary antibodies (1:10,000, IRDye 800CW, LICOR) in milk for 1 hour at ambient temperature, washed again (3×5 min, TBST), and visualized on a LICOR Odyssey Scanner.

KEAP1 = molecular target: T2, KEAP1 (Homo sapiens, UniProt Q14145); assay: gel-based RP-ABPP of transfected HEK293T cells; assay type: cell-based; conditions: transfected HEK293T cells vs mock
T2 construct: Full-length genes encoding three probe 1- and one probe 2-targeted proteins were amplified from a cDNA library; expressed in transfected cells; host or cells: HEK293T
T2 sequence (Q14145 whole entry): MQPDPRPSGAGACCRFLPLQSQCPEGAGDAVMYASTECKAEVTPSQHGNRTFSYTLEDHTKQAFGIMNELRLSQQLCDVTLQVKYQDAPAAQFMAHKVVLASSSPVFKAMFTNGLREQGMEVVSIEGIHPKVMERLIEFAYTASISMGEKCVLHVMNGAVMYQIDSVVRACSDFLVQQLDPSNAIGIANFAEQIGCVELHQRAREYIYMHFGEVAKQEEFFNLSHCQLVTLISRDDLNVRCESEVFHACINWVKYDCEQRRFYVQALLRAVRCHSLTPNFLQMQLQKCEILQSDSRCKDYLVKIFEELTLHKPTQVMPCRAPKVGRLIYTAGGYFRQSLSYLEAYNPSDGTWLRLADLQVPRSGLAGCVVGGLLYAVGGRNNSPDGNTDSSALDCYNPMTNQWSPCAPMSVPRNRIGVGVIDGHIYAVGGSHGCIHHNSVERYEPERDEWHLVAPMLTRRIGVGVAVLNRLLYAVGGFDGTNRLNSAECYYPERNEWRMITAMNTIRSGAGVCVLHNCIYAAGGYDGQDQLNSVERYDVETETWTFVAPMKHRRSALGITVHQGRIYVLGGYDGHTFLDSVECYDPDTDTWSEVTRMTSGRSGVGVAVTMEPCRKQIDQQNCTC
Protocol: as §1, §2, §3, §4

SCRN3 = molecular target: T3, SCRN3 (Homo sapiens, UniProt Q0VDG4); assay: gel-based RP-ABPP of transfected HEK293T cells; assay type: cell-based; conditions: transfected HEK293T cells vs mock
T3 construct: Full-length genes encoding three probe 1- and one probe 2-targeted proteins were amplified from a cDNA library; expressed in transfected cells; host or cells: HEK293T
T3 sequence (Q0VDG4 6-424): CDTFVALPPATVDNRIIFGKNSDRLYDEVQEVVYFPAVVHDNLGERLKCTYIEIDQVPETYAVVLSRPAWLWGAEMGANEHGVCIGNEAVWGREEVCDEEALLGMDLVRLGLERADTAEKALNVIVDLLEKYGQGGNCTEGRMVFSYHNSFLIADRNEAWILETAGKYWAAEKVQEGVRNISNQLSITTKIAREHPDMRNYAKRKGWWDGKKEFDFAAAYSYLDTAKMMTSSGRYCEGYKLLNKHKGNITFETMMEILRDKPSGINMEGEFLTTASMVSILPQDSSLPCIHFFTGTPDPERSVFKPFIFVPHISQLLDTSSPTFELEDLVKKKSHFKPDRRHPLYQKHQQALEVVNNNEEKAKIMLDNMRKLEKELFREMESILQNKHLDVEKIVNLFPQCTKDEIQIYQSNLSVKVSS
Protocol: as §1, §2, §3, §4

[1] = tested on: HEK293T and MDA-MB-231 cells; assay: determination of high-reactivity protein targets (SILAC RP-ABPP); assay type: cell-based, human; conditions: enrichment ratio >5 and competition ratio >4
Protocol: To further eliminate false positives and any stochastic variability in the data, protein ratios were then determined by the median peptide ratio derived from three or more unique quantified peptides. Protein ratios that complied with these criteria from a single experiment were then averaged with ratios acquired from ≥3 replicates to provide final values for each type of experiment in both cell lines with both probes. […] Most importantly, there are no robustly measured ratios for proteins identified as probe 1 targets that had measured ratios of ˜1 with probe 2. […]
Two types of experiments were performed—1) direct enrichment of probe 1-labelled proteins from heavy cells in comparison to light control cells treated with the non-clickable hydrazine (3) at the same concentration as 1 (3 mM for 0.5 h); and 2) competition experiments where both heavy and light cells were treated probe 1, but light cells were also treated with 10× competitor 3 (FIG. 3A)—in two different human cell lines (HEK293T cells and the human breast cancer cell line MDA-MB-231). […] The target list was further refined by requiring that each protein was detected with a minimum of three unique quantified peptides per experiment and by averaging protein ratios across three or more biological replicates per cell line.

SMILES | probe labeling of recombinant protein, in-gel fluorescence (FTO) | probe labeling of recombinant protein, in-gel fluorescence (KEAP1) | probe labeling of recombinant protein, in-gel fluorescence (SCRN3) | number of high-reactivity proteins [1]
C#CCNN.Cl [probe 1, prop-2-yn-1-ylhydrazine hydrochloride] | selective reactivity with the aryl probe 2 over the alkyl probe 1 | reacted with both probes 1 and 2 | reacted with both probes 1 and 2 | ten
C#CCCNC(=O)c1ccc(NN)cc1.Cl [probe 2, N-(but-3-yn-1-yl)-4-hydrazinylbenzamide hydrochloride] | preferentially targeted by probe 2 | reacted with both probes 1 and 2 | reacted with both probes 1 and 2 | 33
